# Measured values: article PMC10035947, “Development of novel anilinoquinazoline-based carboxylic acids as non-classical carbonic anhydrase IX and XII inhibitors” (Journal of Enzyme Inhibition and Medicinal Chemistry, 2023)
# Columns and labels:
# OVCAR-3 = assay: NCI SRB assay; assay type: cell-based, human; details: for GI%: OVCAR-3, 10 μM; for Growth Percent: OVCAR-3, 1.00E-5 Molar
# BT-549 = assay: NCI SRB assay; assay type: cell-based, human; details: for GI%: BT-549, 10 μM; for Growth Percent: BT-549, 1.00E-5 Molar
# HS 578 T = assay: NCI SRB assay; assay type: cell-based, human; details: for GI%: HS 578 T, 10 μM; for Growth Percent: HS 578T, 1.00E-5 Molar
# SW-620 = assay: NCI SRB assay; assay type: cell-based, human; details: for GI%: SW-620, 10 μM; for Growth Percent: SW-620, 1.00E-5 Molar
# UACC-257 = assay: NCI SRB assay; assay type: cell-based, human; details: for GI%: UACC-257, 10 μM; for Growth Percent: UACC-257, 1.00E-5 Molar
# SK-MEL-28 = assay: NCI SRB assay; assay type: cell-based, human; details: for GI%: SK-MEL-28, 10 μM; for Growth Percent: SK-MEL-28, 1.00E-5 Molar
# hCA IX = target: T1, hCA IX (Homo sapiens, UniProt Q16790); assay: stopped flow CO2 hydrase assay; assay type: biochemical; details: for Selectivity ratio II/IX: KI hCA II / KI hCA IX; for Ki: mean from 3 assays
# T1 construct: made in house
# In short: (§1)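 Recombinant enzymes assayed by stopped-flow CO2 hydration using 0.2 mM phenol red at 557 nm in 20 mM Hepes pH 7.5 with 20 mM Na2SO4, CO2 1.7–17 mM. Inhibitor and enzyme preincubated 15 min at room temperature.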
# hCA XII = target: T2, hCA XII (Homo sapiens, UniProt O43570); assay: stopped flow CO2 hydrase assay; assay type: biochemical; details: for Selectivity ratio I/XII: KI hCA I / KI hCA XII; for Selectivity ratio II/XII: KI hCA II / KI hCA XII; for Ki: mean from 3 assays
# T2 construct: made in house
# T2 sequence (O43570 25-354): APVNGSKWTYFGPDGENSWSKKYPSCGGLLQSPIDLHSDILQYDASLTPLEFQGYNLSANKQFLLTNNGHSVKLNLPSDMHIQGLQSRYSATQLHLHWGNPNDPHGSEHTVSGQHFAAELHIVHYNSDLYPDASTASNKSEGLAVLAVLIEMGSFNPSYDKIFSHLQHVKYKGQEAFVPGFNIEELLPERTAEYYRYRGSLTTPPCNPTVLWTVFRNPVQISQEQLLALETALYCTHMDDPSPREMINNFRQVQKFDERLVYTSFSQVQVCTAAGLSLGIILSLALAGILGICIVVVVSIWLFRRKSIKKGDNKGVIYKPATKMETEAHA
# In short: as §1
# hCA I = target: T3, hCA I (Homo sapiens, UniProt P00915); assay: stopped flow CO2 hydrase assay; assay type: biochemical; details: mean from 3 assays
# T3 construct: made in house
# T3 sequence (P00915 whole entry): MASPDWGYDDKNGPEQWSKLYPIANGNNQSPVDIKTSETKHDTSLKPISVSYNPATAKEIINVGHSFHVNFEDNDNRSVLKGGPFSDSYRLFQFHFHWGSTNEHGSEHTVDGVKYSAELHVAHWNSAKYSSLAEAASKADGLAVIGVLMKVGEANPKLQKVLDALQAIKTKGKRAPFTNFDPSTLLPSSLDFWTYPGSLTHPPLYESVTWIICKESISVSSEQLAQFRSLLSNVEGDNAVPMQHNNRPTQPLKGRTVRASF
# In short: as §1
# OVCAR-5 = assay: NCI SRB assay; assay type: cell-based, human; details: for GI%: OVCAR-5, 10 μM; for Growth Percent: OVCAR-5, 1.00E-5 Molar
# ACHN = assay: NCI SRB assay; assay type: cell-based, human; details: for GI%: 10 μM; for Growth Percent: 1.00E-5 Molar
# RPMI-8226 = assay: NCI SRB assay; assay type: cell-based, human; details: for GI%: RPMI-8226, 10 μM; for Growth Percent: RPMI-8226, 1.00E-5 Molar
# UACC-62 = assay: NCI SRB assay; assay type: cell-based, human; details: for GI%: UACC-62, 10 μM; for Growth Percent: UACC-62, 1.00E-5 Molar
# KM12 = assay: NCI SRB assay; assay type: cell-based, human; details: for GI%: KM12, 10 μM; for Growth Percent: KM12, 1.00E-5 Molar
# MOLT-4 = assay: NCI SRB assay; assay type: cell-based, human; details: for GI%: MOLT-4, 10 μM; for Growth Percent: MOLT-4, 1.00E-5 Molar
# OVCAR-4 = assay: NCI SRB assay; assay type: cell-based, human; details: for GI%: OVCAR-4, 10 μM; for Growth Percent: OVCAR-4, 1.00E-5 Molar
# NCI-H226 = assay: NCI SRB assay; assay type: cell-based, human; details: for GI%: NCI-H226, 10 μM; for Growth Percent: NCI-H226, 1.00E-5 Molar
# HCC-2998 = assay: NCI SRB assay; assay type: cell-based, human; details: for GI%: HCC-2998, 10 μM; for Growth Percent: HCC-2998, 1.00E-5 Molar
# SF-539 = assay: NCI SRB assay; assay type: cell-based, human; details: for GI%: SF-539, 10 μM; for Growth Percent: SF-539, 1.00E-5 Molar
# 786-0 = assay: NCI SRB assay; assay type: cell-based, human; details: for GI%: 786-0, 10 μM; for Growth Percent: 786-0, 1.00E-5 Molar
# IGROV1 = assay: NCI SRB assay; assay type: cell-based, human; details: for GI%: IGROV1, 10 μM; for Growth Percent: IGROV1, 1.00E-5 Molar
# NCI/ADR-RES = assay: NCI SRB assay; assay type: cell-based, human; details: for GI%: 10 μM; for Growth Percent: 1.00E-5 Molar
# MDA-MB-435 = assay: NCI SRB assay; assay type: cell-based; details: for GI%: MDA-MB-435, 10 μM; for Growth Percent: MDA-MB-435, 1.00E-5 Molar
# MALME-3M = assay: NCI SRB assay; assay type: cell-based, human; details: for GI%: 10 μM; for Growth Percent: 1.00E-5 Molar
# T-47D = assay: NCI SRB assay; assay type: cell-based, human; details: for GI%: 10 μM; for Growth Percent: 1.00E-5 Molar
# COLO 205 = assay: NCI SRB assay; assay type: cell-based, human; details: for GI%: COLO 205, 10 μM; for Growth Percent: COLO 205, 1.00E-5 Molar
# U251 = assay: NCI SRB assay; assay type: cell-based, human; details: for GI%: U251, 10 μM; for Growth Percent: U251, 1.00E-5 Molar
smiles,measurement,setting,value
"Cc1ccc(-c2nc(Nc3cccc(C(=O)O)c3)c3ccccc3n2)cc1 [7b, 3-((2-(p-Tolyl)quinazolin-4-yl)amino)benzoic acid]",GI%,OVCAR-3,– (Only GI% higher than 20% are shown)
same,Growth Percent,OVCAR-3,85.56%
same,GI%,BT-549,– (Only GI% higher than 20% are shown)
same,Growth Percent,BT-549,101.46%
same,GI%,HS 578 T,34%
same,Growth Percent,HS 578 T,65.83%
same,GI%,SW-620,– (Only GI% higher than 20% are shown)
same,Growth Percent,SW-620,94.08%
same,GI%,UACC-257,– (Only GI% higher than 20% are shown)
same,Growth Percent,UACC-257,111.51%
same,GI%,SK-MEL-28,– (Only GI% higher than 20% are shown)
same,Growth Percent,SK-MEL-28,97.02%
same,Selectivity ratio II/IX,hCA IX,1.72
same,Ki,hCA IX,24.2 µM
same,Selectivity ratio I/XII,hCA XII,109.9
same,Selectivity ratio II/XII,hCA XII,45.82
same,Ki,hCA XII,0.91 µM
same,Ki,hCA I,> 100 µM
same,GI%,OVCAR-5,– (Only GI% higher than 20% are shown)
same,Growth Percent,OVCAR-5,107.97%
same,GI%,ACHN,24%
same,Growth Percent,ACHN,76.34%
same,GI%,RPMI-8226,29%
same,Growth Percent,RPMI-8226,70.78%
same,GI%,UACC-62,– (Only GI% higher than 20% are shown)
same,Growth Percent,UACC-62,87.74%
same,GI%,KM12,32%
same,Growth Percent,KM12,68.03%
same,GI%,MOLT-4,– (Only GI% higher than 20% are shown)
same,Growth Percent,MOLT-4,89.24%
same,GI%,OVCAR-4,23%
same,Growth Percent,OVCAR-4,77.91%
same,GI%,NCI-H226,25%
same,Growth Percent,NCI-H226,75.32%
same,GI%,HCC-2998,– (Only GI% higher than 20% are shown)
same,Growth Percent,HCC-2998,94.40%
same,GI%,SF-539,27%
same,Growth Percent,SF-539,73.18%
same,GI%,786-0,24%
same,Growth Percent,786-0,76.25%
same,GI%,IGROV1,– (Only GI% higher than 20% are shown)
same,Growth Percent,IGROV1,107.30%
same,GI%,NCI/ADR-RES,– (Only GI% higher than 20% are shown)
same,Growth Percent,NCI/ADR-RES,89.49%
same,GI%,MDA-MB-435,– (Only GI% higher than 20% are shown)
same,Growth Percent,MDA-MB-435,100.82%
same,GI%,MALME-3M,– (Only GI% higher than 20% are shown)
same,Growth Percent,MALME-3M,96.44%
same,GI%,T-47D,– (Only GI% higher than 20% are shown)
same,Growth Percent,T-47D,83.81%
same,GI%,COLO 205,– (Only GI% higher than 20% are shown)
same,Growth Percent,COLO 205,124.60%
same,GI%,U251,21%
same,Growth Percent,U251,78.70%
"Cc1cccc(-c2nc(Nc3ccc(C(=O)O)cc3)c3ccccc3n2)c1 [8a, 4-((2-(m-Tolyl)quinazolin-4-yl)amino)benzoic acid]",GI%,OVCAR-3,– (Only GI% higher than 20% are shown)
same,Growth Percent,OVCAR-3,82.69%
same,GI%,BT-549,34%
same,Growth Percent,BT-549,66.04%
same,GI%,HS 578 T,48%
same,Growth Percent,HS 578 T,51.51%
same,GI%,SW-620,– (Only GI% higher than 20% are shown)
same,Growth Percent,SW-620,84.27%
same,GI%,UACC-257,– (Only GI% higher than 20% are shown)
same,Growth Percent,UACC-257,101.78%
same,GI%,SK-MEL-28,– (Only GI% higher than 20% are shown)
same,Growth Percent,SK-MEL-28,96.84%
same,Selectivity ratio I/IX,hCA IX; KI hCA I / KI hCA IX,20.4
same,Selectivity ratio II/IX,hCA IX,2.16
same,Ki,hCA IX,4.3 µM
same,Selectivity ratio I/XII,hCA XII,23.1
same,Selectivity ratio II/XII,hCA XII,2.45
same,Ki,hCA XII,3.8 µM
same,Ki,hCA I,87.7 µM
same,GI%,OVCAR-5,– (Only GI% higher than 20% are shown)
same,Growth Percent,OVCAR-5,133.93%
same,GI%,ACHN,– (Only GI% higher than 20% are shown)
same,Growth Percent,ACHN,85.41%
same,GI%,RPMI-8226,30%
same,Growth Percent,RPMI-8226,70.27%
same,GI%,UACC-62,– (Only GI% higher than 20% are shown)
same,Growth Percent,UACC-62,104.52%
same,GI%,KM12,23%
same,Growth Percent,KM12,76.63%
same,GI%,MOLT-4,22%
same,Growth Percent,MOLT-4,78.39%
same,GI%,OVCAR-4,– (Only GI% higher than 20% are shown)
same,Growth Percent,OVCAR-4,83.42%
same,GI%,NCI-H226,52%
same,Growth Percent,NCI-H226,47.62%
same,GI%,HCC-2998,24%
same,Growth Percent,HCC-2998,75.96%
same,GI%,SF-539,– (Only GI% higher than 20% are shown)
same,Growth Percent,SF-539,91.50%
same,GI%,786-0,29%
same,Growth Percent,786-0,70.77%
same,GI%,IGROV1,– (Only GI% higher than 20% are shown)
same,Growth Percent,IGROV1,110.06%
same,GI%,NCI/ADR-RES,– (Only GI% higher than 20% are shown)
same,Growth Percent,NCI/ADR-RES,84.58%
same,GI%,MDA-MB-435,– (Only GI% higher than 20% are shown)
same,Growth Percent,MDA-MB-435,96.58%
same,GI%,MALME-3M,– (Only GI% higher than 20% are shown)
same,Growth Percent,MALME-3M,110.61%
same,GI%,T-47D,22%
same,Growth Percent,T-47D,77.59%
same,GI%,COLO 205,– (Only GI% higher than 20% are shown)
same,Growth Percent,COLO 205,135.98%
same,GI%,U251,27%
same,Growth Percent,U251,72.61%
